{
  "source": "ChEMBL document CHEMBL6121007",
  "about": "“Design, synthesis and evaluation of pyrimidine derivatives as sedative-hypnotic agents” (Eur J Med Chem, 2025)",
  "key": {"[1]": {"test": "AUC (0 to infinity) in male Sprague-Dawley rat at 2.5 mg/kg, ip measured after 5 to 1440 mins by LC-MS/MS analysis", "type": "ADME, organism-based", "details": "in vivo, time 5-1440 min"}, "[2]": {"test": "Ratio of drug concentration in male mouse brain to plasma at 10 mg/kg, ip measured after 4 hrs by LC-MS/MS analysis", "type": "ADME, organism-based", "details": "brain and plasma, read-out: BPR"}, "[3]": {"test": "Upregulation of kaposi sarcoma-associated herpesvirus infection related genes in hypothalamus of mouse at 2.5 mg/kg, ip measured after 30 mins by KEGG enrichment analysis relative to control", "type": "functional", "details": "0.5 h"}, "[4]": {"test": "Clearance in male Sprague-Dawley rat at 0.5 mg/kg, iv measured after 2 to 720 mins by LC-MS/MS analysis", "type": "ADME, organism-based", "details": "in vivo, time 2-720 min"}, "[5]": {"test": "MRT (0 to infinity) in male Sprague-Dawley rat at 0.5 mg/kg, iv measured after 2 to 720 mins by LC-MS/MS analysis", "type": "ADME, organism-based", "details": "in vivo, time 2-720 min"}, "Mus musculus [6]": {"test_system": "Mus musculus", "test": "In vivo activation of cAMP/PKA/CREB signaling pathway in mouse assessed as increase in CREB phosphorylation in hypothalamus at 2.5 mg/kg, ip measured after 30 mins by Western blot analysis", "type": "functional, organism-based"}, "[7]": {"test": "Drug concentration in male mouse plasma at 10 mg/kg, ip measured after 4 hrs by LC-MS/MS analysis", "type": "ADME, organism-based"}, "[8]": {"test": "Tmax in male Sprague-Dawley rat at 0.5 mg/kg, iv measured after 2 to 720 mins by LC-MS/MS analysis", "type": "ADME, organism-based", "details": "in vivo, time 2-720 min"}, "[9]": {"test": "Upregulation of mTOR signaling pathway related genes in hypothalamus of mouse at 2.5 mg/kg, ip measured after 30 mins by KEGG enrichment analysis relative to control", "type": "functional", "details": "0.5 h"}, "[10]": {"test": "Half life in male Sprague-Dawley rat at 2.5 mg/kg, ip measured after 5 to 1440 mins by LC-MS/MS analysis", "type": "ADME, organism-based", "details": "in vivo, time 5-1440 min"}, "Mus musculus [11]": {"test_system": "Mus musculus", "test": "Upregulation of arachidonic acid metabolism related genes in hypothalamus of mouse at 2.5 mg/kg, ip measured after 30 mins by KEGG enrichment analysis relative to control", "type": "functional", "details": "0.5 h"}, "Mus musculus [12]": {"test_system": "Mus musculus", "test": "Upregulation of serine metabolism related genes in hypothalamus of mouse at 2.5 mg/kg, ip measured after 30 mins by KEGG enrichment analysis relative to control", "type": "functional", "details": "0.5 h"}, "Mus musculus [13]": {"test_system": "Mus musculus", "test": "Sedative-hypnotic activity in pentobarbital-induced mouse assessed as asleep rate at 0.5 to 0.1 mg/kg, ip preadministered with compound for 20 mins followed by pentobarbital administration and measured within 15 mins (reference value: 12.5 %)", "type": "functional", "details": "dose 0.5-0.1 mg/kg, time <= 35 min, at 0.1 to 0.5 mg/kg"}, "Mus musculus [14]": {"test_system": "Mus musculus", "test": "Upregulation of glycerolipid metabolism related genes in hypothalamus of mouse at 2.5 mg/kg, ip measured after 30 mins by KEGG enrichment analysis relative to control", "type": "functional", "details": "0.5 h"}, "[15]": {"test": "Drug concentration in male mouse brain at 10 mg/kg, ip measured after 1 hrs by LC-MS/MS analysis", "type": "ADME, organism-based", "details": "read-out: Ct"}, "[16]": {"test": "Upregulation of cytokine-cytokine receptor interaction related genes in hypothalamus of mouse at 2.5 mg/kg, ip measured after 30 mins by KEGG enrichment analysis relative to control", "type": "functional", "details": "0.5 h"}, "Mus musculus [17]": {"test_system": "Mus musculus", "test": "Upregulation of parathyroid hormone secretion related genes in hypothalamus of mouse at 2.5 mg/kg, ip measured after 30 mins by KEGG enrichment analysis relative to control", "type": "functional", "details": "0.5 h"}, "Mus musculus [18]": {"test_system": "Mus musculus", "test": "Sedative-hypnotic activity in mouse assessed as decrease in number of square crossing at 50 mg/kg, ip administrated as single dose and measured after 30 mins by open field test", "type": "functional, organism-based"}, "[19]": {"test": "Half life in male Sprague-Dawley rat at 0.5 mg/kg, iv measured after 2 to 720 mins by LC-MS/MS analysis", "type": "ADME, organism-based", "details": "in vivo, time 2-720 min"}, "[20]": {"test": "Apparent volume of distribution in male Sprague-Dawley rat at 0.5 mg/kg, iv measured after 2 to 720 mins by LC-MS/MS analysis", "type": "ADME, organism-based", "details": "in vivo, time 2-720 min, read-out: Vd(app)"}, "Mus musculus [21]": {"test_system": "Mus musculus", "test": "Upregulation of ubiquitin mediated proteolysis related genes in hypothalamus of mouse at 2.5 mg/kg, ip measured after 30 mins by KEGG enrichment analysis relative to control", "type": "functional", "details": "0.5 h"}, "Mus musculus [22]": {"test_system": "Mus musculus", "test": "Upregulation of linoleic acid metabolism related genes in hypothalamus of mouse at 2.5 mg/kg, ip measured after 30 mins by KEGG enrichment analysis relative to control", "type": "functional", "details": "0.5 h"}, "Mus musculus [23]": {"test_system": "Mus musculus", "test": "In vivo activation of cAMP/PKA/CREB signaling pathway in mouse assessed as increase in cAMP level in hypothalamus at 2.5 mg/kg, ip measured after 30 mins by ELISA analysis", "type": "functional, organism-based"}, "[24]": {"test": "Upregulation of Rap1 signaling pathway related genes in hypothalamus of mouse at 2.5 mg/kg, ip measured after 30 mins by KEGG enrichment analysis relative to control", "type": "functional", "details": "0.5 h"}, "Mus musculus [25]": {"test_system": "Mus musculus", "test": "Sedative-hypnotic activity in mouse assessed as increase in latency time of first step out of center square at 0.1 to 2.5 mg/kg, ip administrated as single dose and measured after 30 mins by open field test", "type": "functional, organism-based", "details": "dose 0.1-2.5 mg/kg"}, "Mus musculus [26]": {"test_system": "Mus musculus", "test": "Sedative-hypnotic activity in pentobarbital-induced mouse assessed as increase in sleep duration at 2.5 mg/kg, ip administrated as single dose", "type": "functional, organism-based"}, "Mus musculus [27]": {"test_system": "Mus musculus", "test": "Upregulation of cell cycle related genes in hypothalamus of mouse at 2.5 mg/kg, ip measured after 30 mins by KEGG enrichment analysis relative to control", "type": "functional", "details": "0.5 h"}, "[28]": {"test": "Upregulation of Ras signaling pathway related genes in hypothalamus of mouse at 2.5 mg/kg, ip measured after 30 mins by KEGG enrichment analysis relative to control", "type": "functional", "details": "0.5 h"}, "Mus musculus [29]": {"test_system": "Mus musculus", "test": "Sedative-hypnotic activity in mouse assessed as decrease in number of square crossing at 0.1 to 0.5 mg/kg, ip administrated as single dose and measured within 3 mins by open field test", "type": "functional, organism-based", "details": "dose 0.1-0.5 mg/kg"}, "[30]": {"test": "Ratio of drug concentration in male mouse brain to plasma at 10 mg/kg, ip measured after 2 hrs by LC-MS/MS analysis", "type": "ADME, organism-based", "details": "brain and plasma, read-out: BPR"}, "Mus musculus [31]": {"test_system": "Mus musculus", "test": "Upregulation of gap junction related genes in hypothalamus of mouse at 2.5 mg/kg, ip measured after 30 mins by KEGG enrichment analysis relative to control", "type": "functional", "details": "0.5 h"}, "[32]": {"test": "AUC (0 to infinity) in male Sprague-Dawley rat at 0.5 mg/kg, iv measured after 2 to 720 mins by LC-MS/MS analysis", "type": "ADME, organism-based", "details": "in vivo, time 2-720 min"}, "[33]": {"test": "Upregulation of proteoglycans in cancer related genes in hypothalamus of mouse at 2.5 mg/kg, ip measured after 30 mins by KEGG enrichment analysis relative to control", "type": "functional", "details": "0.5 h"}, "[34]": {"test": "Drug concentration in male mouse brain at 10 mg/kg, ip measured after 4 hrs by LC-MS/MS analysis", "type": "ADME, organism-based", "details": "read-out: Ct"}, "Mus musculus [35]": {"test_system": "Mus musculus", "test": "Sedative-hypnotic activity in pentobarbital-induced mouse assessed as asleep rate at 0.5 to 2.5 mg/kg, ip preadministered with compound for 20 mins followed by pentobarbital administration and measured within 15 mins (reference value: 12.5 %)", "type": "functional", "details": "dose 0.5-2.5 mg/kg, time <= 35 min"}, "[36]": {"test": "Upregulation of human T-cell leukemia virus 1 infection related genes in hypothalamus of mouse at 2.5 mg/kg, ip measured after 30 mins by KEGG enrichment analysis relative to control", "type": "functional", "details": "0.5 h"}},
  "note": "Calls of active or inactive are those of the source. The calls are words filed in the database; no cut-off is given here.",
  "data": [
    {"smiles": "CCn1c2ccccc2c2cc(Nc3ccnc(Nc4ccc(C)c(OC)c4)n3)ccc21", "values": [
      {"measurement": "AUC(0-inf)", "setting": "[1]", "result": 3300, "unit": "ng·h/mL"},
      {"measurement": "Kp at 4 h", "setting": "[2]", "result": 0.31},
      {"measurement": "Activity", "setting": "[3]", "result": 4.62, "unit": "%"},
      {"measurement": "clearance", "setting": "[4]", "result": 9.53, "unit": "mL/min/kg"},
      {"measurement": "MRT inf", "setting": "[5]", "result": 3.47, "unit": "h"},
      {"measurement": "Activity", "setting": "Mus musculus [6]", "result": "Active"},
      {"measurement": "concentration at 4 h", "setting": "[7]", "result": 64.7, "unit": "ng/mL"},
      {"measurement": "Tmax", "setting": "[8]", "result": 1.8, "unit": "min"},
      {"measurement": "Activity", "setting": "[9]", "result": 3.47, "unit": "%"},
      {"measurement": "half-life", "setting": "[10]", "result": 4.56, "unit": "h"},
      {"measurement": "Activity", "setting": "Mus musculus [11]", "result": 2.89, "unit": "%"},
      {"measurement": "Activity", "setting": "Mus musculus [12]", "result": 1.73, "unit": "%"},
      {"measurement": "Activity", "setting": "Mus musculus [13]", "result": 75, "unit": "%"},
      {"measurement": "Activity", "setting": "Mus musculus [14]", "result": 2.31, "unit": "%"},
      {"measurement": "concentration at 1 h", "setting": "[15]", "result": 15, "unit": "ng/mL"},
      {"measurement": "Activity", "setting": "[16]", "result": 8.09, "unit": "%"},
      {"measurement": "Activity", "setting": "Mus musculus [17]", "result": 4.05, "unit": "%"},
      {"measurement": "Activity", "setting": "Mus musculus [18]", "result": "Active"},
      {"measurement": "half-life", "setting": "[19]", "result": 3.54, "unit": "h"},
      {"measurement": "Vd", "setting": "[20]", "result": 2.9, "unit": "L/kg"},
      {"measurement": "Activity", "setting": "Mus musculus [21]", "result": 1.73, "unit": "%"},
      {"measurement": "Activity", "setting": "Mus musculus [22]", "result": 1.73, "unit": "%"},
      {"measurement": "Activity", "setting": "Mus musculus [23]", "result": "Active"},
      {"measurement": "Activity", "setting": "[24]", "result": 3.47, "unit": "%"},
      {"measurement": "Activity", "setting": "Mus musculus [25]", "result": "Active"},
      {"measurement": "Activity", "setting": "Mus musculus [26]", "result": "Active"},
      {"measurement": "Activity", "setting": "Mus musculus [27]", "result": 2.89, "unit": "%"},
      {"measurement": "Activity", "setting": "[28]", "result": 3.47, "unit": "%"},
      {"measurement": "Activity", "setting": "Mus musculus [29]", "result": "Active; No Significant Difference Compared With Control Mouse"},
      {"measurement": "Kp at 2 h", "setting": "[30]", "result": 0.38},
      {"measurement": "Activity", "setting": "Mus musculus [31]", "result": 2.89, "unit": "%"},
      {"measurement": "AUC(0-inf)", "setting": "[32]", "result": 885, "unit": "ng·h/mL"},
      {"measurement": "Activity", "setting": "[33]", "result": 5.2, "unit": "%"},
      {"measurement": "concentration at 4 h", "setting": "[34]", "result": 20.2, "unit": "ng/mL"},
      {"measurement": "Activity", "setting": "Mus musculus [35]", "result": 100, "unit": "%"},
      {"measurement": "Activity", "setting": "[36]", "result": 4.62, "unit": "%"}
    ]}
  ]
}
